Nine molecules from patent US10047051B2, “Substituted pyridines and method of use” (AbbVie S.á{acute over (.)}r.l., priority 2015, dated 2018) can be followed below.

Assay type in all cases: cell-based
In assay [1] the target is G551D CFTR (Homo sapiens, UniProt P13569, G551D). The assay is described as follows: TECC assay, FRT-CFTR G551D protocol. The note with it: FRT cells stably transfected with G551D CFTR, high expression cells, increase in Isc after forskolin. As for the experimental part:
For G551D recordings, Fischer Rat Thyroid (FRT) cells stably transfected with G551D CFTR (a low CFTR-G551D expressing cell line and a high expressing CFTR-G551D cell line from Rosalind Franklin University of Medicine and Science, North Chicago, Ill.) are plated on Transwell® supports (Costar 6.5 mm diameter, 0.4 μm pore size). The cells are grown for 8-10 days under liquid-liquid interface conditions prior to electrophysiological readings. For electrophysiological recording, the FRT-G551D cells are mounted in the TECC heating plate for electrophysiological measurement and kept at 37° C. The epithelia are bathed in HEPES buffered culturing medium without FBS on both the basolateral and apical sides. Apical amiloride is used to inhibit the endogenous ENaC currents while forkolin is applied on both apical and basolateral side to stimulate CFTR. After forskolin triggering, compounds are added on both sides to test their potential for increasing CFTR gating. Measurements are done during a 10 minute timeframe with recordings every 2 minutes. The increase in Isc is used as a measure for the increased CFTR activity, EC50 values can be generated by measuring impact of different concentrations of compound on Isc on the cells, for this purpose each transwell is treated with a different compound concentration. Inh-172, an inhibitor specific for CFTR, is used to test the specificity of the tested compounds.

Assay [2] addresses T1, CFTR ΔF508 mutant (Homo sapiens, UniProt P13569, DEL508-508).
T1 construct: expressed in transfected cells; host or cells: CFBE41o- cells, adenoviral transduction
As to the kind of experiment: YFP-halide influx assay for the CFTR-ΔF508 mutation (CFBE41o- cells). As to conditions: forskolin 10.67 μM; for EC50: from (1−F/F0) vs concentration plot. In outline:
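CFBE41o- cells transduced with adenovirus expressing CFTR ΔF508 and halide-sensitive YFP H148Q/I152L/F47L, then held 24 h at 27° C or with a CFTR modulator 24 h at 37° C. Iodide-induced quench recorded 2 min; EC50 from (1−F/F0) at 36 s versus concentration.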

For assay [3], the target named is T2, CFTR G551D mutant (Homo sapiens, UniProt P13569, G551D).
T2 construct: expressed in transfected cells; host or cells: HEK293 cells, reverse transfection with plasmids
T2 sequence (P13569 whole entry G551D): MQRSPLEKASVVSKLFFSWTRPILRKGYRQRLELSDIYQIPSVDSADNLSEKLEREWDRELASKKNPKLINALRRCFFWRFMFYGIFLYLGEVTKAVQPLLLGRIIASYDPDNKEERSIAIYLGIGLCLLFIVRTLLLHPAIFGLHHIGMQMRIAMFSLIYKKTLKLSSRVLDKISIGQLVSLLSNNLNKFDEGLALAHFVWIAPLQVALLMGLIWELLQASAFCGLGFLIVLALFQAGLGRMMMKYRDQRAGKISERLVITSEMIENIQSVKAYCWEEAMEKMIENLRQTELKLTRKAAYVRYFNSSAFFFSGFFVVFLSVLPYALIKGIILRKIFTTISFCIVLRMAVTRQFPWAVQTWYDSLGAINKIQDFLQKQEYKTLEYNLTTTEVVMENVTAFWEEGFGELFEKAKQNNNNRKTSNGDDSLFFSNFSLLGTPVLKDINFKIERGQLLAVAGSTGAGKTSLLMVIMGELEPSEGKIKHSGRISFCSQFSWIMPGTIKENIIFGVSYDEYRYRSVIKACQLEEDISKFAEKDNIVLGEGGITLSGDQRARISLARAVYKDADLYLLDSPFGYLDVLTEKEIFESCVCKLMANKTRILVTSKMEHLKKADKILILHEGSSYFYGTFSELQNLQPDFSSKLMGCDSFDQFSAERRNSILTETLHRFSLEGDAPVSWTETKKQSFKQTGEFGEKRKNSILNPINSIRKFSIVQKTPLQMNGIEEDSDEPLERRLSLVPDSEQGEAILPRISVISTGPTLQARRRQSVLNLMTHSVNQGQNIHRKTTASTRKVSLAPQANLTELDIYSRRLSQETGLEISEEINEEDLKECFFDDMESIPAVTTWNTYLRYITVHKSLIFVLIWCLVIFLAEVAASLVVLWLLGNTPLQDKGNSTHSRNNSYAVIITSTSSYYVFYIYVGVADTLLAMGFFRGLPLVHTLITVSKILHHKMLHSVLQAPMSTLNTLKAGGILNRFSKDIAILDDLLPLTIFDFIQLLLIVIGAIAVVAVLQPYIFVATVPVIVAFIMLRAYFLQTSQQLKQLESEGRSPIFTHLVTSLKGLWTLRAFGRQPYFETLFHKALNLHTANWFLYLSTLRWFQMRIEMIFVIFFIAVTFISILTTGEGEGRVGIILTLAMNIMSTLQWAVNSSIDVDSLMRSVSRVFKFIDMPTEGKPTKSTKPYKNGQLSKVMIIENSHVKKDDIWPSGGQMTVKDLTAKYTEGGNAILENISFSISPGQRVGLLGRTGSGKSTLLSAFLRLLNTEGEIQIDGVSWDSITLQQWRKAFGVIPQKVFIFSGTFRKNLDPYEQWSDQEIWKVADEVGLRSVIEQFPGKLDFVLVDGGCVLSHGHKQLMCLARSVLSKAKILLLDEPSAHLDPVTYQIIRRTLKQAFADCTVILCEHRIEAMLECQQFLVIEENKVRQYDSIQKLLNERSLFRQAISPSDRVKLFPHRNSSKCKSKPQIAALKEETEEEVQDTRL
The assay is described as follows: YFP-halide influx assay for the CFTR-G551D mutation (HEK293 cells). The note with it: forskolin 10.67 μM. A digest of the protocol:
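HEK293 cells reverse-transfected with CFTR G551D and halide-sensitive YFP (H148Q/I152L/F47L), expressed 24 h at 37 °C. YFP fluorescence quenching recorded for 7 s after I⁻ injection. Response = 1−F/F0; EC50 derived from 1−F/F0 vs compound concentration.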

The target in assay [4] is T3, CFTR-G1349D (Homo sapiens, UniProt P13569, G1349D).
T3 construct: expressed in transfected cells
T3 sequence (P13569 whole entry G1349D): as the sequence (P13569 whole entry G551D) above, with D551G, G1349D counted along it
As to the kind of experiment: YFP-halide influx assay for the CFTR-G1349D. A digest of the protocol: (§1)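 HEK293 cells reverse-transfected with a CFTR mutant and YFP H148Q/I152L/F47L halide sensor, expressed 24 h at 37° C. Fluorescence quenching followed for 7 s after I⁻ injection; activity expressed as 1−F/F0, with EC50 fitted from 1−F/F0 versus compound concentration.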

Assay [5] has as its target T4, CFTR-S549N (Homo sapiens, UniProt P13569, S549N).
T4 construct: expressed in transfected cells
The assay is described as follows: YFP-halide influx assay for the CFTR-S549N. Also noted: % Activation: concentration or dose not given beside the values. From the text:
(§2) The YFP halide influx assay measured the functionality of the cystic fibrosis Transmembrane Conductance regulator (CFTR) channels. The assay was used to evaluate the capacity of compounds to increase the channel opening of existing mutant CFTR channels in the membrane. It makes use of the observation that the yellow fluorescent protein (YFP) variant YFP H148Q, I152L, F47L has its fluorescence substantially quenched by halide ions like Cl^− and I^− (Galietta, L. J. V., Haggie, P. M., Verkman, A. S., 2001. Green fluorescent protein-based halide indicators with improved chloride and iodide affinities. FEBS Lett. 499, 220-224. doi:10.1016/S0014-5793(01)02561-3).
(§3) For this purpose, HEK293-cells were seeded in 96 well plates. During seeding, the cells were reverse-transfected with plasmid vectors that direct the expression of the CFTR G551D mutant and of the YFP reporter. Cells were incubated at 37° C., 5% CO2 for 24 hours so as to allow for sufficient expression of the CFTR protein.
(§4) The I^−-induced quenching of fluorescence was recorded immediately after injection of I^− for 7 seconds. The capacity of a compound to increase the channel opening was directly correlated with the decrease in fluorescence, and was expressed as (1−(fluorescence after 7 seconds (F)/fluorescence before injection (F0))) and an EC50 was derived from a (1−F/F0) vs compound concentration plot.
(§5) Similar YHA assays were developed for other channel gating defective or channel conductance defective CFTR mutants to determine effect of compound on channel activity. Examples of mutants are G178R, G1349D, S549N, R117H, R334W. This assay is also used for additional class I CFTR mutants, including G542X, W1282X; class II mutants including N1303K, and for class III mutants including S1251N; or wild-type CFTR.

Assay [6] deals with T5, CFTR-G178R (Homo sapiens, UniProt P13569, G178R).
T5 construct: expressed in transfected cells
T5 sequence (P13569 whole entry G178R): as the sequence (P13569 whole entry G551D) above, with G178R, D551G counted along it
As to the kind of experiment: YFP-halide influx assay for the CFTR-G178R.
Text: as §2, §3, §4, §5

Assay [7] addresses T6, CFTR-R117H (Homo sapiens, UniProt P13569, R117H).
T6 construct: expressed in transfected cells
As to the kind of experiment: YFP-halide influx assay for the CFTR-R117H. A digest of the protocol: as §1

T6 sequence (P13569 whole entry R117H): as the sequence (P13569 whole entry G551D) above, with R117H, D551G counted along it
T1 sequence (P13569 with tags, fused parts or gaps DEL508-508): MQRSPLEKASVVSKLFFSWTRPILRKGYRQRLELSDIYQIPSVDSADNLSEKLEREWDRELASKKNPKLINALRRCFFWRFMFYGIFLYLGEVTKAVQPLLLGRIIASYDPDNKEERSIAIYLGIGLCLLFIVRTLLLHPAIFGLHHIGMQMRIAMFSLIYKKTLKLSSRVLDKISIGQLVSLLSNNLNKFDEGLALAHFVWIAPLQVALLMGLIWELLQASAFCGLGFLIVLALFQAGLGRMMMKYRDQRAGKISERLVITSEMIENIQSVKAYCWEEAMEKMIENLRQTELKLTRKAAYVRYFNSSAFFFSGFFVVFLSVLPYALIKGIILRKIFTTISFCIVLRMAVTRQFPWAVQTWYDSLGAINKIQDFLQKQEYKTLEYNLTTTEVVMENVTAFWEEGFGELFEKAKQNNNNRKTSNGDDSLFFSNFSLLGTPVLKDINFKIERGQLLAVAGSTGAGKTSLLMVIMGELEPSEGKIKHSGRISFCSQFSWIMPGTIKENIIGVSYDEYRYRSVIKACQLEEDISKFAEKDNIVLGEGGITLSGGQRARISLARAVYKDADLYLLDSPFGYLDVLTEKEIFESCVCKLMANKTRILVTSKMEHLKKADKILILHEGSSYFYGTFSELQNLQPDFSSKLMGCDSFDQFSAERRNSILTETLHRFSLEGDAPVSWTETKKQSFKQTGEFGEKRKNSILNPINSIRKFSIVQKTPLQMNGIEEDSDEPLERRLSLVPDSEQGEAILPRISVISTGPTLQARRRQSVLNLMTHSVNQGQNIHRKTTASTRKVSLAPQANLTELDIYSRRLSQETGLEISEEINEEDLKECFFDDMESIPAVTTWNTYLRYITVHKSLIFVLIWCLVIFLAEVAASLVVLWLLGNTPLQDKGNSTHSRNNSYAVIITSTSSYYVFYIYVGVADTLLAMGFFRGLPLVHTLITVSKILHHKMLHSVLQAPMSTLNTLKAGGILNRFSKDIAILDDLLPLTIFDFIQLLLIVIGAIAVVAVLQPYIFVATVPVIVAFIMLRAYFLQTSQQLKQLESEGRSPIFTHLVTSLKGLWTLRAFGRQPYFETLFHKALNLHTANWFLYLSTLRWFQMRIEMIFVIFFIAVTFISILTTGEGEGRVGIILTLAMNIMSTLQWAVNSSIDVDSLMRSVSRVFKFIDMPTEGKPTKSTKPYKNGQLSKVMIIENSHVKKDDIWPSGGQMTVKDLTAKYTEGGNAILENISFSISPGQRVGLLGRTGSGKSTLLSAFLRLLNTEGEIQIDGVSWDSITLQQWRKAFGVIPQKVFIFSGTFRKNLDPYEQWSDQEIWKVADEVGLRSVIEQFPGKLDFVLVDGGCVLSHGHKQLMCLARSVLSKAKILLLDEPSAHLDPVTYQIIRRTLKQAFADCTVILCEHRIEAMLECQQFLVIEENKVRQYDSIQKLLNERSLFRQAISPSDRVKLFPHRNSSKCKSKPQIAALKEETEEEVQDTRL
G551D CFTR, sequence (P13569 whole entry G551D): as the sequence (P13569 whole entry G551D) above
T4 sequence (P13569 whole entry S549N): as the sequence (P13569 whole entry G551D) above, with S549N, D551G counted along it

For the molecule `CC(C)(CO)CNC(=O)c1ncc(S(=O)(=O)c2ccc(OC(F)(F)F)cc2)cc1N` [Compound 18, 3-amino-N-(3-hydroxy-2,2-dimethylpropyl)-5-{[4-(trifluoromethoxy)phenyl]sulfonyl}pyridine-2-carboxamide], the 50% effective concentration (EC50) – broadly, the concentration that produces a half-maximal response – in assay [1] was 1430 nM; in assay [2], 43.1 nM; in assay [3], above 3330 nM. Further, the “% Activation” value in assay [2] worked out at 109.1%; in assay [3], 79.2%.

Turning to `C[C@@H](O)CNC(=O)c1ncc(S(=O)(=O)c2ccc(OC(F)(F)F)cc2)cc1N` [Compound 20, 3-amino-N-[(2R)-2-hydroxypropyl]-5-{[4-(trifluoromethoxy)phenyl]sulfonyl}pyridine-2-carboxamide], the EC50 in assay [1] was found to be 3700 nM; in assay [2] it was 29.7 nM; in assay [3] it was 893 nM. Besides, the “% Activation” value in assay [2] turned out to be 98.5%; in assay [3], 64.8%.

Regarding `Nc1cc(S(=O)(=O)c2ccc(OC(F)(F)F)cc2)cnc1C(=O)N[C@@H]1CCCC[C@H]1O` (racemic) [Compound 17, rac-3-amino-N-[(1R,2R)-2-hydroxycyclohexyl]-5-{[4-(trifluoromethoxy)phenyl]sulfonyl}pyridine-2-carboxamide], the EC50 turned out to be 1130 nM in assay [1], 8.8 nM in assay [2] and 1640 nM in assay [3]. Moreover, the “% Activation” value was found to be 113.0% in assay [2] and 82.7% in assay [3].

As to `CC(CO)CNC(=O)c1ncc(S(=O)(=O)c2ccc(OC(F)(F)F)cc2)cc1N` (stereo not shown) [Compound 24, 3-amino-N-(3-hydroxy-2-methylpropyl)-5-{[4-(trifluoromethoxy)phenyl]sulfonyl}pyridine-2-carboxamide], the EC50 in assay [1] stood at 2830 nM; in assay [2] it was 21.4 nM; in assay [3], 423 nM. Further, the “% Activation” value in assay [2] was 106.6%; in assay [3], 52.2%.

As to `CC(C)(O)CNC(=O)c1ncc(S(=O)(=O)c2ccc(C(F)(F)F)cc2)cc1N` [Compound 11, 3-amino-N-(2-hydroxy-2-methylpropyl)-5-{[4-(trifluoromethyl)phenyl]sulfonyl}pyridine-2-carboxamide], the EC50 stood at 1350 nM in assay [1]; 1600 nM in assay [4]; 945 nM in assay [5]; 442 nM in assay [6]; 21.7 nM in assay [2]; 835 nM in assay [3]. The molecule further came in with an EC50 in assay [7] of 296 nM. Besides, the “% Activation” value came to 90.4% in assay [4]; 84.1% in assay [5]; 95.3% in assay [6]; 113.5% in assay [2]; 75.7% in assay [3]; 90.4% in assay [7].

As to `Nc1cc(S(=O)(=O)c2ccc(OC(F)(F)F)cc2)cnc1C(=O)NCC1(O)CC1` [Compound 15, 3-amino-N-[(1-hydroxycyclopropyl)methyl]-5-{[4-(trifluoromethoxy)phenyl]sulfonyl}pyridine-2-carboxamide], the half-maximal effective concentration (EC50) amounted to 669 nM in assay [1], 2.6 nM in assay [2] and 361 nM in assay [3]. In addition, the figures for the “% Activation” value in assay [2] and in assay [3] were 109.0% and 69.3%, respectively.

In the case of `COCC(O)CNC(=O)c1ncc(S(=O)(=O)c2ccc(OC(F)(F)F)cc2)cc1N` (stereo not shown) [Compound 3, 3-amino-N-(2-hydroxy-3-methoxypropyl)-5-{[4-(trifluoromethoxy)phenyl]sulfonyl}pyridine-2-carboxamide], the EC50 in assay [1] was 1980 nM; in assay [4], 291 nM; in assay [5] it was 839 nM; in assay [6] it was 392 nM; in assay [2] it was 17.7 nM; in assay [3], 1980 nM. The same molecule yielded an EC50 in assay [7] of 451 nM. In addition, the “% Activation” value in assay [4] is reported as 83.2%; in assay [5], 91.8%; in assay [6], 98.2%; in assay [2] it was 109.7%; in assay [3] it was 73.9%; in assay [7], 102.0%.

On to `CC(O)(CNC(=O)c1ncc(S(=O)(=O)c2ccc(F)cc2)cc1N)C(F)(F)F` (stereo not shown) [Compound 19, 3-amino-5-[(4-fluorophenyl)sulfonyl]-N-(3,3,3-trifluoro-2-hydroxy-2-methylpropyl)pyridine-2-carboxamide], for which the EC50 is 5480 nM in assay [1]; 659 nM in assay [4]; 1610 nM in assay [5]; 561 nM in assay [6]; 16.4 nM in assay [2]; 1080 nM in assay [3]. In assay [7], this molecule had a concentration giving a half-maximal response (EC50) of 186 nM. The “% Activation” value in assay [4] was 84.3%; in assay [5], 79.6%; in assay [6], 89.9%; in assay [2] it was 113.3%; in assay [3], 63.2%; in assay [7] it was 90.8%.

For `CC(C)(O)C1CN(C(=O)c2ncc(S(=O)(=O)c3ccc(C(F)(F)F)cc3)cc2N)C1` [Compound 165, (3-amino-5-{[4-(trifluoromethyl)phenyl]sulfonyl}pyridin-2-yl)[3-(2-hydroxypropan-2-yl)azetidin-1-yl]methanone], the 50% effective concentration (EC50) worked out at 116 nM in assay [1]; 214 nM in assay [4]; 10.9 nM in assay [2]; 287 nM in assay [3]; 92.8 nM in assay [7]. Further, the “% Activation” value in assay [4] is listed as 87.6%; in assay [2] it was 115.2%; in assay [3], 55.0%; in assay [7], 94.2%.
